Reference: PMC3979046 (Breast Cancer Research : BCR, 2013)
Read-outs that look alike come from different tables or passages of the source.

Assays:
HER3 = tested on: HER3; parameters: method as in PMID 21215704; settings: via feedback mechanisms ref 11; cited from earlier work
[1] = human, in vivo
[2] = Plasma pharmacokinetics of MK-2206 given with trastuzumab; settings: for Tmax: human, plasma, oral
[3] = prior phase 1 studies ref 13; cited from earlier work
[4] = tested on: patients with solid tumors; parameters: method as in PMID 22025163; settings: cited from earlier work
[5] = tested on: recombinant human AKT1, AKT2 and AKT3; settings: cited from earlier work
[6] = tested on: patients with HER2+ solid tumors; settings: in combination with trastuzumab, true MTD not established
Description: This phase 1, multicenter, open-label, nonrandomized, dose-defining study was conducted in accordance with the Declaration of Helsinki and the International Conference on Harmonisation Good Clinical Practice Guidelines, and was approved by relevant regulatory and independent ethics committees including Memorial Sloan-Kettering Cancer Center’s Institutional Review Board, Mofftt Cancer Center’s Quorum Review Institutional Review Board, and The National Research Ethics Service, The Royal Marsden Research Ethics Committee. Patients provided written consent prior to enrolling in the trial. […] Dose finding was based on toxicity probability intervals. In brief, three patients were first dosed at each level and advanced according to the toxicity probability interval; up to another 10 patients (total of 13 patients at a dose level) could be assigned to one dose, in which case up to four DLT events in the dose level of 13 patients would be considered tolerable. […] Correlation of antitumor activity with PI3K pathway activation events (that is, circulating tumor DNA and mutations) was an exploratory objective of this trial.
Patients were evaluated at baseline and throughout the course of the study using physical examinations, vital signs, ophthalmologic examinations, 12-lead electrocardiogram cardiac monitoring, laboratory tests, and Eastern Cooperative Oncology Group performance status.

cytochrome p450 3A4 = settings: cited from earlier work
[7] = tested on: HER2+ metastatic breast cancer patients refractory to trastuzumab; parameters: method as in PMID 22689807; settings: phase 3 trial, 296 patients, no chemotherapy ref 21; cited from earlier work

For `NC1(c2ccc(-c3nc4ccn5c(=O)[nH]nc5c4cc3-c3ccccc3)cc2)CCC1` [MK-2206], the “effect on HER3” value (HER3) is given as “upregulate HER3”, the “patients achieving the 48-hour target of at least 56.8 nM” value [1] is given as ~ 92% and the “patients with trough level at or above the clinical monotherapy efficacy trough target of 56.8 nM” value ([2]; 45 mg or 60 mg QOD with trastuzumab) is given as 11/11. The “geometric mean ratio of Cmax (last dose/first dose)” value ([2]; 200 mg QW, multiple dosing for 21 to 22 days) was 1.30, the Tmax [2] was 4 to 6 h and the Tmax ([2]; median time to maximum concentration, 135 mg and 200 mg QW with trastuzumab) was 4 to 8 h. The dose proportionality [3] was “no substantial departure from dose proportionality”, the “most significant dose-limiting toxicity (DLT)” value ([4]; monotherapy ref 13) was “rash” and the “maximum tolerable dose (MTD)” value ([4]; monotherapy, QOD ref 13) was 60 mg. For the same compound, the “maximum tolerable dose (MTD), expected” value ([4]; monotherapy, QW, not established due to early discontinuation ref 13) was “less than 250 mg”, the off-target kinase activity [5] was “little off-target kinase activities” and the “relative potency against AKT isoforms” value ([5]; recombinant human isoforms ref 12) was “higher potency against recombinant human AKT1 and AKT2 isoforms than AKT3”. For the same compound, the “maximum tolerated dose (MTD)” value ([6]; QOD schedule) was 60 mg, the “maximum tolerated dose (MTD)” value ([6]; QW schedule) was 135 mg and the metabolizing enzyme (cytochrome p450 3A4) was “metabolized by cytochrome p450 3A4”.
In the case of `CS(=O)(=O)CCNCc1ccc(-c2ccc3ncnc(Nc4ccc(OCc5cccc(F)c5)c(Cl)c4)c3c2)o1` [lapatinib], the median progression-free survival [7] is listed as 8.1 weeks.
